Assay results published in patent publication US8697858B2 (priority 2009, dated 2014).
l = locked nucleic acid (LNA); d = 2'-deoxy (DNA)

Columns and labels:
H1N1 (strain PR8) = assay type: cell-based, murine
M2 protein = assay type: cell-based, H1N1 (strain PR8)

Substance	relative effectiveness of the 2′OMe compounds (viral HA RNA; also observed for M2 protein) (H1N1 (strain PR8))	effectiveness in the M2 protein expression assay (M2 protein)	effectiveness in the viral HA RNA assay (H1N1 (strain PR8))	reduction in viral HA RNA levels (H1N1 (strain PR8))
2′OMe-AUG2: 2′OMe phosphorothioate oligomer, SEQ ID NO: 20 (ACCTCGGTTAGAAGACTCATCTTTC; all 2'-O-methyl, all phosphorothioate, T or U not given here)	most effective			
LNA-AUG10: LNA (capitals)/DNA gAcTcAtCtT (GACTCATCTT; sugars from the 5' end dldldldldl, backbone and methylation of C not given here)		least effective	least effective	
LNA-AUG1: LNA (capitals)/DNA CgGtTaGaAgAcTcAtCtTt (CGGTTAGAAGACTCATCTTT; sugars from the 5' end ldldldldldldldldldld, backbone and methylation of C not given here)		most effective		approximately 3 log
LNA-AUG12: LNA (capitals)/DNA CgGtTaGaAgAcTcAt (CGGTTAGAAGACTCAT; sugars from the 5' end ldldldldldldldld, backbone and methylation of C not given here)				approximately 1.5 log
